22 compounds from patent publication US5162336A, “Tetrahydro-pyrido-indoles as cholecystokinin and gastrin antagonists” (Rhone-Poulenc Rorer Pharmaceuticals Inc., priority 1990, dated 1992) can be followed below.

For the assay, the target named is T1, CCK-A receptor (Rattus norvegicus, UniProt P30551).
T1 construct: from tissue; host or cells: pancreas membranes of Sprague-Dawley rat
T1 sequence (P30551 1-444): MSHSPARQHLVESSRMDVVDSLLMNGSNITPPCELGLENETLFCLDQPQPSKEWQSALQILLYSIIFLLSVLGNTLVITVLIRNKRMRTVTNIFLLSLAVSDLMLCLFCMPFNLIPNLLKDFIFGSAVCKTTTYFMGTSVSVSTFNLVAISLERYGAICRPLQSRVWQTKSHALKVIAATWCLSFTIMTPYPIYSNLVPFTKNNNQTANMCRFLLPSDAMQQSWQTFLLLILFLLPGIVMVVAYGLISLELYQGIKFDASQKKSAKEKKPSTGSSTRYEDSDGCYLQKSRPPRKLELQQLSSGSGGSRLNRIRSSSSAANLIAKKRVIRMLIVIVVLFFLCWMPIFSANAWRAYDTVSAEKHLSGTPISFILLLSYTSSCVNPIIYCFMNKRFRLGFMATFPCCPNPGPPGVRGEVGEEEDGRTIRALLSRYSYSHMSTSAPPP
Description: CCK-A receptor binding assay (displacement of 3H-L-364,718 from rat pancreas membranes). The conditions noted are these: 3H-L-364,718 0.2 nM, 37° C., 30 min, read-out: In vitro Binding Data IC50 CCK. Set-up: species or system Sprague-Dawley rat. As to the method: Washer Buffer (for use with Brandel Cell Harvester):
30 liters of 50 mM Tris, ph 7.7: Dissolve 181.7 g. Tris base in 4 1. deionized water at room temperature. Adjust pH to 7.7 with 6 N HCl and Q.S. to 30 1.
50 mM Tris-Cl, 5 mM MgCl2, 5 mM dithio-thretiol, 0.14 mg/ml bacitracin, and 2 mg/ml bovine serum albumin.
1 liter of 5X stock buffer:
30.28 g. Tris base per 800 ml D.I. water 5.09 g. MgCl2 6 H2 O, pH to 7.7 at room temperature with 6N HCl and Q.S. 1 liter, store at 4° C.
250 ml working buffer kept on ice:
50 ml of 5X stock buffer 0.1928 g. dithiothretiol (5 mM), 35 mg bacitracin (0.14 mg/ml), and 0.5 g. BSA (2mg/ml).
Unlabeled L-364,718(nonpeptide ligand):
Unlabeled L-364,718 (300 nM final concentration) is used to define nonspecific binding. A 3 mM solution is made in absolute ethanol and stored in a scintillation vial at -70° C. Aliquots are diluted 100-fold in the assay.
A Sprague-Dawley rat is sacrificed by asphyxiation with carbon dioxide and the pancreas removed. The tissue is immersed in cold wash buffer and carefully trimmed of fat, connective tissue, blood vessels, blotted and weighed. The tissue is homogenized in a Sorvall SS-34 centrifuge tube in 50 volumes of wash buffer using a Polytron at setting 7 for 15 seconds. The tissue is centrifuged (Sorvall SS-34) at 19,000 rpm for 10 min. The supernatant is poured off and the pellet resuspended in sufficient buffer to obtain a contraction of 40 mg tissue wet weight/ml. Separate aliquots (2,3ml) are placed in each of 8 centrifuge tubes and centrifuged as before. The supernatants are poured off and the pellets stored at -70° C. Stored pellets are sufficient for the assay of 160 tubes and are stable for 1-2 months.
During the assay the stored membranes are resuspended in 40 ml of assay buffer by scraping the pellet off the wall of the centrifuge tube and washing it into a teflon-glass homogenizer. Membranes are resuspended by 5 passes with the teflon pestle and the membranes stored on ice until ready for use.
Preparation of Compounds:
Compounds are prepared in DMSO (dimethyl sulfoxide) or in assay buffer. The majority of structures active as CCK antagonists generally require DMSO for complete solubility. Approximately 2-3 mg of compound is weighed directly into a 13×100 mm test tube and sufficient DMSO added to obtain a working stock solution at a concentration 100 fold greater than the highest concentration being tested in the assay. A total of 10 μl of each concentration of drug is added into a final volume of 1 ml to yield a 100 fold dilution of the, working stock solution. Control binding tubes ("totals and nonspecifics") are also treated with 10 μl DMSO.
^3 H-L-364,718 is obtained from New England Nuclear (Cat. #971) and is used as supplied. The final assay concentration of ^3 H-L-364,718 in assay buffer should be 0.2 nM in a final assay volume of 1 ml. ^3 H-L-364,718 (0.2 pmol) is added into the assay in a volume of 25 μl (8 nM working stock solution). The required dilution (usually>1000 fold) is obtained by dividing the working stock concentration into the concentration of the specific lot.
Samples are prepared in triplicate and a "total" (buffer addition) and "nonspecific" (300 nM unlabeled L-364,718) set of tubes included in each set of 24 tubes. The remaining 6 sets of triplicates are used either for screening or IC50 determinations. The order of addition is drugs-DMSO, buffer, unlabeled L-364,718, ^3 H-L-364,718, and to start the assay, membranes.
While tubes are incubating a shaking water bath at 37° C. for 30 min Brandel deposit/dispense filters are presoaked in wash buffer. Following the end of the incubation, sets of 24 tubes are rapidly washed with assay buffer as follows. Assay buffer is added to the incubation tubes to the height of the uppermost cross support in the standard Brandel test tube rack and the contents immediately aspirated. This process is repeated twice more, the filter removed, marked and the next set of 24 tubes processed. […]
A general note: Displacement assays read how much labelled ligand stays bound in the presence of the test substance.
On to `CC(C)C[C@H](NC(=O)[C@H]1Cc2c([nH]c3ccccc23)CN1)C(=O)N[C@@H](CC(=O)O)C(N)=O` [Example 1, N-[(3R)-1,2,3,4-tetrahydro-9H-pyrido[3,4-b]indole-3-carboxyl]-L-leucyl-L-aspartic acid amide], for which the IC50 was > 300 µM.

As for `CC(C)C[C@H](NC(=O)[C@@H]1Cc2c([nH]c3ccccc23)CN1)C(=O)N[C@@H](CC(=O)O)C(N)=O` [Example 2, N-[(3S)-1,2,3,4-tetrahydro-9H-pyrido[3,4-b]indole-3-carboxyl]-L-leucyl-L-aspartic acid amide], the IC50 is > 300 µM. With `NC(=O)[C@H](CC(=O)O)NC(=O)[C@H]1Cc2c([nH]c3ccccc23)CN1` [Example 3, N-[(3R)-1,2,3,4-tetrahydro-9H-pyrido[3,4-b]-indole-3-carboxyl]-L-aspartic acid amide] the figure was > 300 µM; with `NC(=O)[C@H](CC(=O)O)NC(=O)[C@@H]1Cc2c([nH]c3ccccc23)CN1` [Example 4, N-[(3S)-1,2,3,4-tetrahydro-9H-pyrido[3,4-b]indole-3-carboxyl]-L-aspartic amide], > 300 µM. With `O=C(NCC(c1ccccc1)c1ccccc1)[C@H]1Cc2c([nH]c3ccccc23)CN1` [Example 5, (3R)-3-(2,2'-diphenyl)ethylcarbamoyl-1,2,3,4-tetrahydro-9H-pyrido[3,4-b]indole] the figure was 50 to 60 µM; with `O=C(NC(c1ccccc1)c1ccccc1)[C@H]1Cc2c([nH]c3ccccc23)CN1` [Example 6, (3R)-3-diphenylmethylcarbamoyl-1,2,3,4-tetrahydro-9H-pyrido[3,4-b]indole], 62 µM; with `NC(=O)[C@H](CC(=O)O)NC(=O)[C@H]1Cc2c([nH]c3ccccc23)CN1C(=O)c1ccccc1` [Example 8, N-[(3R)-2-benzoyl-1,2,3,4-tetrahydro-9H-pyrido[3,4-b]indole-3-carboxyl]-L-aspartic acid amide], 82 µM. The result for `CC(C)C[C@H](NC(=O)[C@H]1Cc2c([nH]c3ccccc23)CN1C(=O)c1ccccc1)C(=O)N[C@@H](CC(=O)O)C(N)=O` [Example 9, N-[(3R)-2-benzoyl-1,2,3,4-tetrahydro-9H-pyrido[3,4-b]indole-3-carboxyl]-L-leucyl-L-aspartic acid amide] reads 230 µM. As to `CC(C)C[C@H](NC(=O)[C@H]1Cc2c([nH]c3ccccc23)CN1C(=O)c1ccc2ccccc2c1)C(=O)N[C@@H](CC(=O)O)C(N)=O` [Example 10, N-[(3R)-2-(2-naphthoyl)-1,2,3,4-tetrahydro-9H-pyrido[3,4-b]indole-3-carboxyl]-L-leucyl-L-aspartic acid amide], the IC50 worked out at 25 µM. On to `Cc1cccc(NC(=O)N2Cc3[nH]c4ccccc4c3C[C@@H]2C(=O)N[C@@H](CC(C)C)C(=O)N[C@@H](CC(=O)O)C(N)=O)c1` [Example 11, N-[(3R)-2-(3-methylphenylcarbamoyl)-1,2,3,4-tetrahydro-9H-pyrido[3,4-b]indole-3-carboxyl]-L-leucyl-L-aspartic acid amide], for which the IC50 stood at 34 µM. For `Cc1cccc(NC(=O)N2Cc3[nH]c4ccccc4c3C[C@H]2C(=O)N[C@@H](CC(C)C)C(=O)N[C@@H](CC(=O)O)C(N)=O)c1` [Example 12, N-[(3S)-2-(3-methylphenylcarbamoyl)-1,2,3,4-tetrahydro-9H-pyrido[3,4-b]indole-3-carboxyl]-L-leucyl-L-aspartic acid amide], the IC50 came to 170 µM. For the compound `CCCCCN(CCCCC)C(=O)[C@H]1Cc2c([nH]c3ccccc23)CN1C(=O)Nc1cccc(C)c1` [Example 13, (3R)-3-(N,N-dipentylcarbamoyl)-2-(3-methylphenylcarbamoyl)-1,2,3,4-tetrahydro-9H-pyrido[3,4-b]indole], the IC50 was found to be 10 µM. The result for `CC(C)C[C@H](NC(=O)[C@H]1Cc2c([nH]c3ccccc23)CN1C(=O)Nc1ccccc1)C(=O)N[C@@H](CC(=O)O)C(N)=O` [Example 14, N-[(3R)-2-phenylcarbamoyl-1,2,3,4-tetrahydro-9H-pyrido[3,4-b]indole-3-carboxyl]-L-leucyl-L-aspartic acid amide] reads > 100 µM; that for `CCOC(=O)c1ccc(NC(=O)[C@H]2Cc3c([nH]c4ccccc34)CN2C(=O)OCc2ccccc2)cc1` [Example 15, ethyl 4-N-[(3R)-2-carbobenzoxy-1,2,3,4-tetrahydro-9H-pyrido[3,4-b]indole-3-carboxyl]aminobenzoate], 9 µM; that for `CCOC(=O)c1cccc(NC(=O)[C@H]2Cc3c([nH]c4ccccc34)CN2C(=O)OCc2ccccc2)c1` [Example 16, ethyl 3-N-[(3R)-2-carbobenzoxy-1,2,3,4-tetrahydro-9H-pyrido[3,4-b]indole-3-carboxyl]aminobenzoate], 10 to 25 µM.

In the case of `CCOC(=O)c1ccccc1NC(=O)[C@H]1Cc2c([nH]c3ccccc23)CN1C(=O)OCc1ccccc1` [Example 17], the IC50 is > 10 µM. With `O=C(Nc1ccccc1C(=O)N1CCCC1)[C@H]1Cc2c([nH]c3ccccc23)CN1C(=O)OCc1ccccc1` [Example 18, pyrrolidine-2-N-[(3R)-2-carbobenzoxy-1,2,3,4-tetrahydro-9H-pyrido-[3,4-b]indole-3-carboxyl]aminobenzamide] the figure was 25 µM. The result for `O=C(Nc1ccccc1C(=O)N1CCCC1)[C@@H]1Cc2c([nH]c3ccccc23)CN1C(=O)OCc1ccccc1` [Example 19, pyrrolidine-2-N-[(3S)-2-carbobenzoxy-1,2,3,4-tetrahydro-9H-pyrido[3,4-b]indole-3-carboxyl]aminobenzamide] reads 20 µM; that for `O=C(Nc1ccccc1C(=O)N1CCCC1)[C@H]1Cc2c([nH]c3ccccc23)CN1C(=O)c1ccc2ccccc2c1` [Example 20, pyrrolidine-2-N-[(3R)-2-(2-naphthoyl)-1,2,3,4-tetrahydro-9H-pyrido[3,4-b]indole-3-carboxyl]aminobenzamide], > 30 µM. With `CCCCN(CCCC)C(=O)c1ccccc1NC(=O)[C@H]1Cc2c([nH]c3ccccc23)CN1C(=O)OCc1ccccc1` [Example 22] the figure was > 10 µM; with `CCOC(=O)c1ccccc1NC(=O)[C@@H]1Cc2c([nH]c3ccccc23)CN1C(=O)OCc1ccccc1` [Example 23, ethyl 2-N-[(3S)-2-carbobenzoxy-1,2,3,4-tetrahydro-9H-pyrido[3,4-b]indole-3-carboxyl]aminobenzoate], > 10 µM; with `CC[C@H](C)[C@H](NC(=O)[C@H]1Cc2c([nH]c3ccccc23)CN1C(=O)Nc1ccc(Cl)c(Cl)c1)C(=O)N[C@@H](CC(=O)O)C(N)=O` [Example 24, N-[(3R)-2-(3,4-dichlorophenylcarbamoyl)-1,2,3,4-tetrahydro-9H-pyrido[3,4-b]indol-3-yl]carbonyl-L-isoleucyl-L-aspartic acid amide], 36 µM.

Usually IC50 stands for the concentration at which inhibition is half-maximal.
